According to patent publication US9632075B2, “Prevention or attenuation of neuropathic pain by bile acids” (Metselex, Inc., priority 2011, dated 2017):

Legend:
Format in all cases: in vivo, rat
paw withdrawal threshold = assay: von Frey testing for tactile hypersensitivity after SNL; conditions: for withdrawal threshold of the ipsilateral hindpaw: TUDCA 300 mg/kg i.p.
Description: (§1) Rats were divided into two experimental groups: a group in which the L5 spinal nerve was ligated and cut, and a sham-operated control group. The left L5 spinal nerve was isolated, tightly ligated and cut distal to the ligation under isoflurane anesthesia (1.5%). The surgical procedure for the sham-operated group was identical to that of the SNL group, except that the L5 spinal nerve was not ligated or cut. General behavior of the rats was monitored before and after the surgery. Any rats showing difficulty elevating a hindpaw were discarded from the study.
(§2) Rats were treated with 5,7-dihydroxytryptamine (5,7-DHT: 100 μg/10 μl, intracisternal injection) to induce loss of RVM serotonergic neurons. Rats were randomly assigned to one of four groups for these experiments: (1) L5 SNL with 5,7-DHT; (2) L5 SNL with vehicle injection; (3) sham with 5,7-DHT; and (4) sham with vehicle. Injections were given ten days after surgery; animals receiving vehicle injections received sterile saline (10 μl, intracisternal injection). To prevent damage to noradrenergic (NE) neurons, the inventors pre-treated animals 30 minutes before 5,7-DHT and saline administration with desipramine (20 mg/kg i.p.), an inhibitor of neuronal NE reuptake. To test the effects of inhibiting apoptosis on SNL, the inventors administered a systemically active inhibitor of apoptosis, tauroursodeoxycholic acid (TUDCA) (300 mg/kg i.p. or saline prior to and after surgery. For each group, injections were given every-other day, starting 3 days prior to surgery and continuing until sacrifice. To confirm the efficacy of TUDCA, the inventors tested its effects on dexamethasone-induced apoptosis in thymus. Two TUDCA injections (300 mg/kg i.p.) were given: one to two days prior to dexamethasone (1 mg/kg i.p.) administration and one the day of dexamethasone administration. Control animals were given saline injections instead of TUDCA solution. Rats were killed one day after dexamethasone administration.
Mechanical sensitivity was determined by measuring the paw withdrawal threshold in response to the application of von Frey filaments, using the up-down method of Chaplan. In brief, rats were placed on a wire mesh surface, covered by an inverted plastic cage and allowed to habituate for 15 min. Filaments were then applied to the plantar surface of the hindpaw. If application of the filament evoked no response, the next-larger filament was applied; if application elicited withdrawal, the next-smaller filament was applied. This sequence was repeated until the largest filament was used or until four filaments were applied after the first withdrawal was noted. Withdrawal thresholds were measured prior to surgery and at 2-3 day intervals after surgery. In all cases, thresholds were measured bilaterally.

thymus = assay: dexamethasone-induced apoptosis in thymus (caspase-3 labeling); conditions: TUDCA 300 mg/kg i.p., two injections; dexamethasone 1 mg/kg i.p.
Procedure: as §2, with “Rats were killed one day after dexamethasone administration.” left out

RVM neurons = assay: number of RVM neurons after spinal nerve ligation (SNL), stereological cell counting
Description: as §1, §2
(§3) The RVM and spinal cord were sectioned using a freezing microtome (Leica, SM2400) at a nominal thickness of 50 μm. […]

RVM 5-HT neurons = assay: number of RVM 5-HT (TPH-ir) neurons after SNL, stereological cell counting
Description: as §1, §2, §3

RVM glia = assay: number of RVM glia after SNL (Nissl-stained tissue); conditions: SNL rats
Description: as §1, §2
Conventional microscopy was used to collect images of the RVM for cell counting. An Olympus BX50 fluorescence microscope (Tokyo, Japan) equipped with filter sets designed to allow selective visualization of Cy2 and Cy3 was used. Microscopic images were collected with a Scion 1346 digital camera. Confocal images were collected using an Olympus FluoView FV1000 microscope (Tokyo, Japan). ImageJ 1.29 (developed at NIH and available at http://rsb.info.nih.gov/ij/) or Photoshop were used to adjust contrast and brightness in images. […]
stereological methods were used for quantification as described previously. […] The sampling interval thereafter was determined based on the number of sections within the RVM and was usually every sixth section. […]

Row | Compound | mechanical hypersensitivity after SNL (paw withdrawal threshold; 5,7-DHT 100 μg/10 μl intracisternal injection ten days after surgery) | caspase-3 labeling in thymus compared to dexamethasone alone (thymus) | number of RVM neurons ipsilateral to the lesion (RVM neurons; SNL rats, TUDCA 300 mg/kg i.p. every-other day, ipsilateral, vehicle 12,540±930) | number of RVM neurons contralateral to SNL (RVM neurons; SNL rats, TUDCA 300 mg/kg i.p., contralateral, saline 16,949±1,074) | number of RVM neurons ipsilateral, higher than in vehicle-treated SNL rats (RVM neurons; ipsilateral, p<0.05, n=8) [%] | number of RVM 5-HT neurons contralateral to SNL (RVM 5-HT neurons; SNL rats, TUDCA 300 mg/kg i.p., contralateral) | number of RVM 5-HT neurons ipsilateral to SNL (RVM 5-HT neurons; SNL rats, TUDCA 300 mg/kg i.p., ipsilateral, vehicle 1,043±118) | number of RVM 5-HT neurons ipsilateral, higher than in vehicle-treated rats (RVM 5-HT neurons; ipsilateral, p<0.05, n=8) [%] | withdrawal threshold of the ipsilateral hindpaw (paw withdrawal threshold; Day 4 post-SNL, vehicle 1.1±0.3 g) [g] | withdrawal threshold of the ipsilateral hindpaw (paw withdrawal threshold; Day 6 post-SNL, vehicle 1.3±0.2 g) [g] | withdrawal threshold of the ipsilateral hindpaw (paw withdrawal threshold; Day 8 post-SNL, vehicle 1.2±0.3 g) [g] | withdrawal threshold of the ipsilateral hindpaw (paw withdrawal threshold; Day 10 post-SNL, vehicle 1.2±0.2 g) [g] | SNL-induced mechanical hypersensitivity (paw withdrawal threshold; TUDCA 300 mg/kg i.p. every-other day) | tactile hypersensitivity one-to-three days after SNL (paw withdrawal threshold; one-to-three days after SNL, TUDCA) | number of RVM glia contralateral after SNL (RVM glia; TUDCA, contralateral, vehicle 80,086±2,899) | number of RVM glia ipsilateral after SNL (RVM glia; TUDCA, ipsilateral, vehicle 85,541±2,972) | RVM glia contralateral, fewer than vehicle (RVM glia; contralateral, p<0.05) [%] | RVM glia ipsilateral, fewer than vehicle (RVM glia; ipsilateral, p<0.05, n=7 TUDCA, n=6 vehicle) [%]
1 | NCCc1c[nH]c2c(O)cc(O)cc12 [5,7-DHT, 5,7-dihydroxytryptamine] | partially reversed |  |  |  |  |  |  |  |  |  |  |  |  |  |  |  |  | 
2 | C[C@H](CCC(=O)NCCS(=O)(=O)O)[C@H]1CC[C@H]2[C@@H]3[C@@H](O)C[C@@H]4C[C@H](O)CC[C@]4(C)[C@H]3CC[C@]12C [TUDCA, tauroursodeoxycholic acid] |  | marked decrease | 17,976±1,202 | 16,675±828 | 43 | 1,251±99 | 1,353±96 | 30 | 3.5 ± 0.5 | 4.0 ± 0.5 | 4.6 ± 1.1 | 5.2 ± 1.3 | partially reversed | does not reduce hypersensitivity | 60,437±4,315 | 62,306±3,736 | 25 | 27
